One assay addresses T1, SOD1^WT (Homo sapiens, UniProt P00441).
T1 construct: The full-length constructs of SOD1-wild type (aa: 1–145); His-tag (cleaved yes); made in house; host or cells: E. coli BL21 DE3
The assay is described as follows: Microscale thermophoresis (MST) binding assay, Cys-labeled SOD1^WT. To be noted: PBS buffer, protein 25 nM, PB 30.5 nM to 250 μM, 25 °C, SEM n = 3, read-out: binding affinity Kd. The protocol: To evaluate the binding efficiency of the ligand PB with SOD1^WT, a quantitative binding assay by microscale thermophoresis (MST) was performed. SOD1^WT was labeled at its cysteine residues to ensure non-interference with lysine-containing binding sites of PB (K9, K122, and K128). The cysteine label targeted free cysteines lying away from the ligand-binding site region. The fluorescently labeled SOD1^WT and 16 different concentrations of PB from 250 μM to 30.5 nM were prepared to evaluate the binding interactions between SOD1^WT and PB, as discussed in the methodology. […] The binding affinity was calculated based on the directional movement of molecules along a temperature gradient and the thermophoretic properties of the protein-ligand molecules.
Fig 4 MST interaction analysis of fluorescently labeled SOD1^WT against PB. The binding of PB to fluorescently Cys-labeled SOD1^WT is quantified in PBS buffer. The concentration of PB varied from 30.5 nM to 250 μM, while the protein SOD1^WT was kept constant at 25 nM. MST experiments were conducted at 20% LED excitation and medium MST power at 25 °C. […] Error bars indicate the standard error of the mean, SEM (n = 3).
(§1) Binding studies were performed for SOD1^WT and the ligands using microscale thermophoresis (MST). […]

For a further assay, the target named is T2, SOD1^K9F (Homo sapiens, UniProt P00441, K10F).
T2 construct: His-tag (cleaved yes); made in house; host or cells: E. coli BL21-DE3
T2 sequence (P00441 whole entry K10F): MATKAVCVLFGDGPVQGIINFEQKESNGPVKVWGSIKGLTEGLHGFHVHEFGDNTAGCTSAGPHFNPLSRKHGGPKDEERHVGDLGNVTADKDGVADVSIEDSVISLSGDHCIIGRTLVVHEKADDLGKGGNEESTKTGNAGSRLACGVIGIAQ
Briefly: MST binding assay, site-specific mutant SOD1^K9F. To be noted: PBS buffer, mutant 25 nM, PB 30.5 nM to 250 μM, 25 °C. The protocol:
To further validate the binding of PB to SOD1, site-directed mutagenesis was performed for the interacting residues at the binding sites of PB. The point mutations generated on the SOD1 protein are K9F, G10P, L42R, and A123F. The MST assay was carried out on these mutants against PB (Fig 5). The dose-response curve with the highest signal-to-noise ratio, high response amplitude, and lowest error rate was selected for measuring the binding affinity (Kd) value. […] Binding at the electrostatic loop is affected majorly by mutating residues at A123 to phenylalanine and L42 to arginine. […] Taken together, the binding affinities of these mutants confirm the ligand bindings at these sites of SOD1 are specific.
Fig 5 MST interaction analysis of fluorescently labeled SOD1 mutants against PB. The binding of PB to fluorescently Cys-labeled SOD1- variants is quantified in PBS buffer. The concentration of PB varied from 30.5 nM to 250 μM, while the respective mutants were kept constant at 25 nM. MST experiments were conducted at 20% LED excitation and medium MST power at 25 °C. […] Error bars indicate the standard error of the mean, SEM (n = 3). […] The ligand PB is printed only in the titles of panels a-d, so the mutant names are used as the substance labels.
as §1

T1 sequence (P00441 whole entry): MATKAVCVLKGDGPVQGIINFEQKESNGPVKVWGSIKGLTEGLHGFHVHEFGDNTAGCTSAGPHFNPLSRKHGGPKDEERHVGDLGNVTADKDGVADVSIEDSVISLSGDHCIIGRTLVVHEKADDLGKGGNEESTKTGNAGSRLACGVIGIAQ

For `CCCC[C@H](C)/C=C(C)/C=C/C(=O)O` [PB, (S, 2E, 4E)-4,6-dimethyldeca-2,4-dienoic acid], the Kd at SOD1^WT amounted to 3.7 ± 1.2 µM. For the same compound, at SOD1^K9F, the “binding affinity Kd” value is given as “no binding”.

Values taken from article PMC10917278, “Structural insights into the modulation Of SOD1 aggregation By a fungal metabolite Phialomustin-B: Therapeutic potential in ALS” (PLOS ONE, 2024).
